The values below come from patent US20200237700A1, “METHODS OF REDUCING OR PREVENTING OXIDATION OF SMALL DENSE LDL OR MEMBRANE POLYUNSATURATED FATTY ACIDS” (Amarin Pharmaceuticals Ireland Limited, priority 2015, published 2020).

In one experiment the test system is human sdLDL. Kind of experiment: Copper-induced sdLDL oxidation, TBARS (Example 7). It is filed as biochemical. Here is the method: (§1) An experiment to study the antioxidant effect of EPA in LDL and small dense […] performed. […] Fenofibrate, gemfibrozil, and niacin were purchased from Sigma-Aldrich. […] Vitamin E was also incubated with sample aliquots as a positive control.

Experiment [1] is described as follows: Small angle x-ray diffraction of cholesterol-enriched POPC model membranes, cholesterol domain peak intensity (Example 9). The format is physicochemical. How it is done: The fatty acid stock solutions were stored at −20° C. until use. […] Samples were shell-dried under nitrogen gas and placed under vacuum for 3 hours to remove residual solvent at room temperature. After desiccation, each sample was resuspended in saline buffer (0.5 mM HEPES, 154 mM NaCl, pH 7.3) to yield a final phospholipid concentration of 2.5 mg/mL. Lipid suspensions were then vortexed for 3 minutes at ambient temperature to form MLVs. Membrane lipid vesicles were oriented for x-ray diffraction analysis as described by others (e.g., Herbette et al., Biophys. […] Briefly, a 100 μL aliquot of each MLV preparation (containing 250 μg MLV) was transferred to a Lucite® sedimentation cell fitted with an aluminum foil substrate designed to collect MLVs into a single membrane pellet upon centrifugation. […] After centrifugal orientation, sample supernatants were aspirated and aluminum foil substrates, each supporting a single membrane pellet, were removed from the sedimentation cells. Sample pellets were dried for 5-10 minutes at ambient conditions, mounted onto curved glass supports, and placed in hermetically-sealed, brass or glass containers (for immediate analysis or temporary storage, respectively). All x-ray diffraction experiments were conducted at 20° C., 74% relative humidity. The latter was established by exposing membrane samples to saturated solutions of L-(+)-tartaric acid (K2C4H4O6.½H2O) for at least 1 hour prior to experimental analysis. Oriented membrane samples were aligned at grazing incidence with respect to a collimated, mono-chromatic CuKα x-ray beam (Kα1 and Kα2 unresolved; λ=1.54 Å) produced by a Rigaku Rotaflex RU-200, high-brilliance microfocus generator (Rigaku-MSC, The Woodlands, Tex.) as previously described (Mason et al., Biophys. J., vol. 55(4), pages 769-778 (1989)). The samples were initially subjected to x-ray diffraction analysis at least 12 hours after formation of the membrane pellets and retested for up to several days. […] Collimation of the x-ray beam was achieved using a single Franks mirror. Diffraction data were collected on a one-dimensional, position-sensitive electron detector (Hecus X-ray Systems, Graz, Austria) at a sample-to-detector distance of 150 mm from the sample site. […] Routines written in Origin 8.6 (OriginLab Corporation, Northampton, Mass.) were used to determine total peak area (associated with all diffraction peaks in a given pattern) against which the second-order cholesterol domain peak was normalized. […] Differences between groups were analyzed using the two-tailed, Student's t-test (for comparisons between only two groups) or ANOVA followed by Dunnett or Student-Newman-Keuls multiple comparisons post-hoc analysis (for comparisons between three or more groups). […]

Experiment [2] relates to human LDL (unfractionated). Kind of experiment: Copper-induced unfractionated LDL oxidation, TBARS 1 hr (Example 7). The format is biochemical. As to conditions: 10 μM. How it is done: as §1
The next experiment concerns HUVECs exposed to oxLDL. Kind of experiment: NO and ONOO− release from HUVECs exposed to oxLDL, nanosensors (Example 8). It is filed as cell-based, human. Here is the method:
Human umbilical vein endothelial cells (HUVECs) were isolated into primary cultures from female donors by Clonetics (San Diego, Calif.) and purchased as proliferating cells. All cell culture donors were healthy, with no pregnancy or prenatal complications. […] The confluent cells (4 to 5×10^5 cells/35 mm dish) were placed with minimum essential medium containing 3 mM L-arginine and 0.1 mM BH4 [(6R)-5,6,7,8-tetrahydrobiopterin]. Before experimental use, the cells (from second or third passage) were rinsed twice with Tyrode-HEPES buffer with 1.8 mM CaCl2.
The omega-3 fatty acids (O3FAs) cis-5,8,11,14,17-eicosapentaenoic acid (EPA) and docosahexaenoic acid (DHA) were purchased from Sigma-Aldrich (St. Louis, Mo.) and prepared initially at 11 mM in redistilled ethanol. Primary and secondary O3FA stock solutions were prepared and stored under argon at −20° C. […]
Oxidation was monitored by the use of measurements of TBARS. […] TBARS concentration was determined as malondialdehyde (MDA) equivalents with the use of an MDA standard curve. […]
The amperometric method (with a response time of 0.1 ms) provides a quantitative signal (current) that is directly proportional to changes (from basal levels) in NO or ONOO^− concentration. […] Basal NO or ONOO^− levels were measured by differential pulse voltammetry in separate experiments. […]

Experiment [3] relates to sdLDL isolated from human subjects under hyperglycemia. Kind of experiment: Glucose-induced sdLDL oxidation, TBARS/MDA (Example 10). To be noted: 10.0 μM; glucose 200 mg/dL. The format is biochemical. How it is done:
Vitamin E (α-tocopherol) purchased from Sigma-Aldrich was prepared in ethanol at 1.0 mM (c=3.06×10^4 M^−1 cm^−1 at 294 nm) prior to experimental use. Test compounds were further diluted in ethanol or aqueous buffer as needed. Phosphate Buffered Saline (PBS) purchased from Sigma-Aldrich was prepared in double distilled water at 10 mM (138 mM NaCl, 2.7 mM KCl, pH 7.4). […] Lipid oxidation was measured by the colorimetric detection of malondialdehyde (MDA), a marker of oxidative stress. Data were presented as mean±SD for (n) separate samples or experiments. Differences between groups were analyzed using the unpaired, two-tailed Student's t-test (for comparisons between only two groups) or ANOVA followed by Student-Newman-Keuls multiple comparisons post hoc analysis (for comparisons between three or more groups).

The mark [4] stands for this setting: EPA to phospholipid 1:30 (Table 3).

Structures are written as SMILES. Values joined by “and” are separate entries in the source; they are usually repeats but may differ in a detail not shown here. Identical values can stand only once.

As to `CC/C=C\C/C=C\C/C=C\C/C=C\C/C=C\CCCC(=O)O` [EPA, cis-5,8,11,14,17-eicosapentaenoic acid], in the experiment on human sdLDL (10.0 μM, 4 hours), the “sdLDL oxidation after 4 hours as compared to vehicle or DHA” value was “significantly inhibited sdLDL oxidation”. In addition, the “inhibition of sdLDL oxidation vs vehicle” value in the experiment with human sdLDL (each agent at 1.0 μM, 1 hr) was determined as 19±8%. The “inhibited TBARS formation / sdLDL oxidation vs vehicle” value in the experiment on human sdLDL (each agent at 10 μM, 1 hr) was 93±2% and 92±8%. For the same molecule, in experiment [1] (setting [4]), the “% Change (vs. Control)” value was −65.5 ± 17.1% and the “Relative Cholesterol Domain Peak Intensity” value came out at 14.6 ± 5.0. The “inhibited TBARS formation compared to vehicle-treated control” value in experiment [2] (unfractionated LDL) is more than 90%. The “increased NO release” value with HUVECs exposed to oxLDL (ECs exposed to oxLDL, as compared to vehicle) was 45%. Besides, in experiment [3], the “inhibited sdLDL oxidation as compared to vehicle controls” value is listed as 94% and the “sdLDL oxidation (formation of MDA)” value worked out at 0.2 ± 0.1 µM.

As for `O=C(O)c1cccnc1` [niacin, nicotinic acid], in the experiment with human sdLDL (10 μM, 1 hour), the “effect on sdLDL oxidation as compared to vehicle-treated controls” value is listed as “no significant effect”. For the same molecule, the “effect on cholesterol domains / domain size” value in experiment [1] (drug-to-phospholipid mole ratio 1:30) is reported as “no significant changes in cholesterol domain size”. The “effect on unfractionated LDL oxidation as compared to vehicle-treated controls” value in experiment [2] is “no significant effect”. Further, the “NO/ONOO− Ratio” value in the experiment on HUVECs exposed to oxLDL (oxLDL 20 min, then treatment 1 hour, EPA 10 μM, ATM 1.0 μM) stood at 2.00 ± 0.52. For the same molecule, the “glucose-induced sdLDL oxidation” value in experiment [3] is given as “did not inhibit glucose-induced sdLDL oxidation”.
